From patent publication EP0233105A1 (priority 1986, dated 1987) come the findings set out here.

The nature of data set [1]: Lethal dose 50% (inhibition of growth of normal cells). Particulars: monkey; concentration inhibiting 50% of growth of normal VERO cells; no unit in table, test concentrations given in microgrammes/ml; read-out: DL50 (the source's name). The data set is classed as cell-based. As for the experimental part:
On a par ailleurs déterminé la dose léthale 50% (DL50) la dose efficace 90% et 99% (DE90 et DE99) et l'indice thérapeutique 90 et 99 (IT90 et IT99) en utilisant les méthodes suivantes :
Les composés ont été préparés à la dose 1 mg/ml dans unvolume maximal de 0,1 ml de diméthyl- sulfoxyde et addition jusqu'à 12 ml d'un milieu de maintenance M-2. Les dilutions ont été effectuées avec le milieu de maintenance M-2.
La DL50 est la concentration à laquelle 50% de la croissance des cellules normales est inhibée. Pour cette détermination on a utilisé 5.10^5 cellules VERO en suspension dans 10 ml de milieu E199 additionné de 6% de sérum de veau (CS) et de gentamycine(20 microgrammes/ml). Les composés ont été ajoutés pour obtenir des concentrations finales de 200;100;-75;50;25;10;5;3;2;1;0,1 et 0,01 microgrammes/ml.

Data set [2] concerns virus (Polio type I). Put plainly: microbe, parasite or virus in culture. The data set is classed as cell-based. The settings on record: for EC90 / EC99: Vero; for EC90: read-out: DE90; for EC99: read-out: DE 99; for IT90: therapeutic index = DL50 divided by DE90; for IT99: therapeutic index = DL50 divided by DE99.

≈ marks a conversion by molar mass, not a printed value.

For `COc1ccc(-c2oc3c(OC)c(OC)c(OC)c(OC)c3c(=O)c2OC)cc1OC` [3,3',4',5,6,7,8-heptaméthoxyflavone], the CC50 in data set [1] stood at 200 µg/mL (≈ 463 µM). Moreover, in data set [2], the EC90 was found to be 20 µg/mL (≈ 46.3 µM), the EC99 was 25 µg/mL, the IT90 was 10 and the IT99 was determined as 8.
Taken in the same sequence, the figures for `COc1ccc(-c2oc3cc(OC)c(OC)c(OC)c3c(=O)c2OC)cc1OC` [3,3',4',5,6,7-hexaméthoxyflavone] were 200 µg/mL (≈ 497 µM), 100 µg/mL (≈ 249 µM), 200 µg/mL, 2 and 1.
Taken in the same sequence, the figures for `COc1ccc(-c2oc3c(OC)c(OC)c(OC)c(O)c3c(=O)c2OC)cc1OC` [3,3',4',6,7,8-hexaméthoxy-5-hydroxyflavone] were 200 µg/mL (≈ 478 µM), 20 µg/mL (≈ 47.8 µM), 25 µg/mL, 10 and 8.
Taken in the same sequence, the figures for `COc1ccc(-c2oc3cc(O)c(OC)c(O)c3c(=O)c2OC)cc1` [3,4',6-triméthoxy-5,7-dihydroxyflavone] were 50 µg/mL (≈ 145 µM), 1 µg/mL (≈ 2.9 µM), 10 µg/mL, 50 and 5.
In the case of `COc1ccc(-c2oc3ccc(OC)cc3c(=O)c2OC)cc1` [3,4',6-triméthoxyflavone], the CC50 in data set [1] turned out to be 100 µg/mL (≈ 320 µM). In addition, in data set [2], the EC90 worked out at 2 µg/mL (≈ 6.4 µM), the EC99 was determined as 50 µg/mL, the IT90 stood at 50 and the IT99 turned out to be 2.
Taken in the same sequence, the figures for `COc1ccc(-c2oc3ccc(O)cc3c(=O)c2OC)cc1` [3,4'-diméthoxy-6-hydroxyflavone] were 200 µg/mL (≈ 670 µM), 100 µg/mL (≈ 335 µM), 200 µg/mL, 2 and 1.
`COc1c(-c2ccc(O)cc2)oc2cccc(OC)c2c1=O` [3,5-diméthoxy-4'-hydroxyflavone]: in data set [1], the CC50 came out at 150 µg/mL (≈ 503 µM). For the same compound, in data set [2], the EC90 came out at 5 µg/mL (≈ 16.8 µM), the EC99 turned out to be 10 µg/mL, the IT90 is 30 and the IT99 is reported as 15.
Taken in the same sequence, the figures for `COc1cc2oc(-c3ccc(O)cc3)c(OC)c(=O)c2c(O)c1OC` [3,6,7-triméthoxy-4',5-dihydroxyflavone] were 100 µg/mL (≈ 290 µM), 0.5 µg/mL (≈ 1.45 µM), 5 µg/mL, 200 and 20.
For the compound `COc1c(O)cc2oc(-c3ccc(O)cc3)c(OC)c(=O)c2c1O` [3,6-diméthoxy-4',5,7-trihydroxyflavone], the CC50 in data set [1] stood at 20 µg/mL (≈ 60.6 µM). Further, in data set [2], the EC90 amounted to 0.5 µg/mL (≈ 1.51 µM), the EC99 is 1 µg/mL, the IT90 amounted to 40 and the IT99 is recorded as 20.
Taken in the same sequence, the figures for `COc1ccc2oc(-c3ccc(O)cc3)c(OC)c(=O)c2c1` [3,6-diméthoxy-4'-hydroxyflavone] were 200 µg/mL (≈ 670 µM), 7 µg/mL (≈ 23.5 µM), 25 µg/mL, 29 and 8.
For the compound `COc1ccc2c(=O)c(OC)c(-c3ccc(O)cc3)oc2c1` [3,7-diméthoxy-4'-hydroxyflavone], the CC50 in data set [1] worked out at 25 µg/mL (≈ 83.8 µM). Also, in data set [2], the EC90 worked out at 1 µg/mL (≈ 3.35 µM), the EC99 came to 5 µg/mL, the IT90 came out at 25 and the IT99 worked out at 5.
Turning to `COc1c(-c2ccc(O)cc2)oc2c(OC)cccc2c1=O` [3,8-diméthoxy-4'-hydroxyflavone], in data set [1], the CC50 is 25 µg/mL (≈ 83.8 µM). In data set [2], the EC90 stood at 10 µg/mL (≈ 33.5 µM), the EC99 was determined as 20 µg/mL, the IT90 is on record as 2,5 and the IT99 was 1,2.
Taken in the same sequence, the figures for `COc1c(-c2ccc(O)cc2)oc2ccc(O)cc2c1=O` [3-méthoxy-4',6-dihydroxyflavone] were 3 µg/mL (≈ 10.6 µM), 0.5 µg/mL (≈ 1.76 µM), 2 µg/mL, 6 and 1,5.
For the compound `COc1c(-c2ccc(OCc3ccccc3)cc2)oc2ccccc2c1=O` [3-méthoxy-4'-benzyloxyflavone], the CC50 in data set [1] stood at 100 µg/mL (≈ 279 µM). Besides, in data set [2], the EC90 worked out at 30 µg/mL (≈ 83.7 µM), the EC99 was determined as 100 µg/mL, the IT90 is reported as 3,3 and the IT99 is 1.
Consider `COc1c(-c2ccc(Cl)cc2)oc2cc(C)ccc2c1=O` [3-méthoxy-4'-chloro-7-méthylflavone], for which the CC50 in data set [1] worked out at 10 µg/mL (≈ 33.3 µM). For the same compound, in data set [2], the EC90 was determined as 10 µg/mL (≈ 33.3 µM), the EC99 is 20 µg/mL, the IT90 was 1 and the IT99 stood at 0.5.
In the case of `COc1c(-c2ccc(O)cc2)oc2ccc(Cl)cc2c1=O` [3-méthoxy-4'-hydroxy-6-chloroflavone], the CC50 in data set [1] worked out at 100 µg/mL (≈ 330 µM). In addition, in data set [2], the EC90 was found to be 2 µg/mL (≈ 6.61 µM), the EC99 stood at 6 µg/mL, the IT90 amounted to 50 and the IT99 came to 17.
Consider `COc1c(-c2ccc(O)cc2)oc2ccc(C)cc2c1=O` [3-méthoxy-4'-hydroxy-6-methylflavone], for which the CC50 in data set [1] is 75 µg/mL (≈ 266 µM). For the same compound, in data set [2], the EC90 was 1 µg/mL (≈ 3.54 µM), the EC99 is 5 µg/mL, the IT90 was 75 and the IT99 came to 15.
Consider `COc1c(-c2ccc(O)cc2)oc2cc(Cl)ccc2c1=O` [3-méthoxy-4'-hydroxy-7-chloroflavone], for which, in data set [1], the CC50 amounted to 100 µg/mL (≈ 330 µM). In data set [2], the EC90 turned out to be 5 µg/mL (≈ 16.5 µM), the EC99 came out at 7 µg/mL, the IT90 is 20 and the IT99 is given as 14,3.
Taken in the same sequence, the figures for `COc1c(-c2ccc(O)cc2)oc2cc(F)ccc2c1=O` [3-méthoxy-4'-hydroxy-7-fluoroflavone] were 20 µg/mL (≈ 69.9 µM), 1 µg/mL (≈ 3.49 µM), 6 µg/mL, 20 and 3,2.
Consider `COc1c(-c2ccc(O)cc2)oc2cc(C)ccc2c1=O` [3-méthoxy-4'-hydroxy-7-méthylflavone], for which the CC50 in data set [1] was found to be 25 µg/mL (≈ 88.6 µM). In data set [2], the EC90 was 0.5 µg/mL (≈ 1.77 µM), the EC99 is 2 µg/mL, the IT90 amounted to 50 and the IT99 is recorded as 12,5.
Taken in the same sequence, the figures for `COc1c(-c2ccc(O)cc2)oc2ccccc2c1=O` [3-méthoxy-4'-hydroxyflavone] were 10 µg/mL (≈ 37.3 µM), 3 µg/mL (≈ 11.2 µM), 6 µg/mL, 3,3 and 1.66.
